Consider 21 compounds from patent publication US11554171B2, “Compounds and methods for the targeted degradation of bromodomain-containing proteins” (Arvinas Operations, Inc., priority 2015, dated 2023).

Where only a bound is given, the exact number is not on record here.

The test system of this test is c-myc in 22RV-1 cells. In words: Human c-myc ELISA assay. In kind it is cell-based. As to conditions: Homo sapiens; for Emax: 22Rv1, 18 h, read-out: Degradation of BRD4: Maximum inhibition (%) c-Myc ELISA in 22RV1 cells; for DC50: 22Rv1, read-out: Degradation of BRD4: DC50 (uM) c-Myc ELISA in 22RV1 cells. Put shortly:
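c-myc levels measured by ELISA in RIPA lysates of 22RV-1 cells, calibrated with a 333-0 pg/ml standard curve. Lysates came from cells exposed for 18 h to an 8-point, 1:3 dose series starting at 300 nM or 1 μM final in 0.1% DMSO. Suppression potency given as DC50.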

On to `CNC[C@@H](NC(=O)[C@@H]1C[C@@H](O)CN1C(=O)[C@@H](NC(=O)COCCCOCCNC(=O)C[C@@H]1N=C(c2ccc(Cl)cc2)c2c(sc(C)c2C)-n2c(C)nnc21)C(C)(C)C)c1ccc(-c2scnc2C)cc1` [Example 111], for which the Emax stood at 47.3% and the DC50 is over 1 µM.

With `Cc1ncsc1-c1ccc(CNC(=O)[C@@H]2C[C@@H](O)CN2C(=O)[C@@H](NC(=O)COCCC[S+]([O-])CCNC(=O)C[C@@H]2N=C(c3ccc(Cl)cc3)c3c(sc(C)c3C)-n3c(C)nnc32)C(C)(C)C)cc1` (stereo partly drawn) [Example 112], the Emax is 26.8% and the DC50 was over 1 µM.

For the compound `Cc1ncsc1-c1ccc(CNC(=O)[C@@H]2C[C@@H](O)CN2C(=O)[C@@H](NC(=O)COc2ccc(S(=O)(=O)CCNC(=O)C[C@@H]3N=C(c4ccc(Cl)cc4)c4c(sc(C)c4C)-n4c(C)nnc43)cc2)C(C)(C)C)cc1` [Example 113], the Emax amounted to 88.5% and the DC50 lay within 0.01 to 0.1 µM.

As for `Cc1ncsc1-c1ccc([C@H](C)NC(=O)[C@@H]2C[C@@H](O)CN2C(=O)[C@@H](NC(=O)c2ccc(OCCCNC(=O)C[C@@H]3N=C(c4ccc(Cl)cc4)c4c(sc(C)c4C)-n4c(C)nnc43)cn2)C(C)(C)C)cc1` [Example 114, 5-(3-{2-[(9S)-7-(4-chlorophenyl)-4,5,13-trimethyl-3-thia-1,8,11,12-tetraazatricyclo[8.3.0.0^2,^6]trideca-2(6),4,7,10,12-pentaen-9-yl]acetamido}propoxy)-N-[(2S)-1-[(2S,4R)-4-hydroxy-2-{[(1S)-1-[4-(4-methyl-1,3-thiazol-5-yl)phenyl]ethyl]carbamoyl}pyrrolidin-1-yl]-3,3-dimethyl-1-oxobutan-2-yl]pyridine-2-carboxamide], the Emax worked out at 99.5% and the DC50 was under 0.01 µM.

Consider `Cc1ncsc1-c1ccc([C@H](C)NC(=O)[C@@H]2C[C@@H](O)CN2C(=O)[C@@H](NC(=O)c2ccc(OCCCCNC(=O)C[C@@H]3N=C(c4ccc(Cl)cc4)c4c(sc(C)c4C)-n4c(C)nnc43)cn2)C(C)(C)C)cc1` [Example 115], for which the Emax amounted to 100% and the DC50 was under 0.01 µM.

Turning to `Cc1ncsc1-c1ccc(CNC(=O)[C@@H]2C[C@@H](O)CN2C(=O)[C@@H](NC(=O)COCCCOCCOc2ccc3c(c2)c2c(C(N)=O)cc(-c4c(C)noc4C)cc2n3Cc2ccccc2)C(C)(C)C)cc1` [Example 116, 9-benzyl-2-(dimethyl-1,2-oxazol-4-yl)-6-{2-[3-({[(2S)-1-[(2S,4R)-4-hydroxy-2-({[4-(4-methyl-1,3-thiazol-5-yl)phenyl]methyl}carbamoyl)pyrrolidin-1-yl]-3,3-dimethyl-1-oxobutan-2-yl]carbamoyl}methoxy)propoxy]ethoxy}-9H-carbazole-4-carboxamide], the Emax was determined as 100% and the DC50 was 0.01 to 0.1 µM.

`Cc1ncsc1-c1ccc(CNC(=O)[C@@H]2C[C@@H](O)CN2C(=O)[C@@H](NC(=O)COCCCOCCCCOc2ccc3c(c2)c2c(C(N)=O)cc(-c4c(C)noc4C)cc2n3Cc2ccccc2)C(C)(C)C)cc1` [Example 117, 9-benzyl-2-(dimethyl-1,2-oxazol-4-yl)-6-{4-[3-({[(2S)-1-[(2S,4R)-4-hydroxy-2-({[4-(4-methyl-1,3-thiazol-5-yl)phenyl]methyl}carbamoyl)pyrrolidin-1-yl]-3,3-dimethyl-1-oxobutan-2-yl]carbamoyl}methoxy)propoxy]butoxy}-9H-carbazole-4-carboxamide]: the Emax came to 100% and the DC50 was under 0.01 µM.

Regarding `Cc1ncsc1-c1ccc(CNC(=O)[C@@H]2C[C@@H](O)CN2C(=O)[C@@H](NC(=O)COc2ccc(O[C@H]3C[C@@H](NC(=O)C[C@@H]4N=C(c5ccc(Cl)cc5)c5c(sc(C)c5C)-n5c(C)nnc54)C3)nc2)C(C)(C)C)cc1` [Example 118], the Emax is 94.4% and the DC50 is under 0.01 µM.

For the compound `Cc1ncsc1-c1ccc([C@H](C)NC(=O)[C@@H]2C[C@@H](O)CN2C(=O)[C@@H](NC(=O)COc2ccc(O[C@H]3C[C@@H](NC(=O)C[C@@H]4N=C(c5ccc(Cl)cc5)c5c(sc(C)c5C)-n5c(C)nnc54)C3)nc2)C(C)(C)C)cc1` [Example 119, (2S,4R)-1-[(2S)-3,3-dimethyl-2-[2-({6-[(1,3-cis)-3-{2-[(9S)-7-(4-chlorophenyl)-4,5,13-trimethyl-3-thia-1,8,11,12-tetraazatricyclo[8.3.0.0^2,^6]trideca-2(6),4,7,10,12-pentaen-9-yl]acetamido}cyclobutoxy]pyridin-3-yl}oxy)acetamido]butanoyl]-4-hydroxy-N-[(1S)-1-[4-(4-methyl-1,3-thiazol-5-yl)phenyl]ethyl]pyrrolidine-2-carboxamide], the Emax amounted to 96% and the DC50 is under 0.01 µM.

In the case of `Cc1ncsc1-c1ccc(CNC(=O)[C@@H]2C[C@@H](O)CN2C(=O)[C@H](c2cc(OCCCCCNC(=O)C[C@@H]3N=C(c4ccc(Cl)cc4)c4c(sc(C)c4C)-n4c(C)nnc43)no2)C(C)C)cc1` [Example 120], the Emax is 79.5% and the DC50 was in the range of 0.1 to 1 µM.

For `Cc1ncsc1-c1ccc(CNC(=O)[C@@H]2C[C@@H](O)CN2C(=O)[C@@H](c2cc(OCCCCCNC(=O)C[C@@H]3N=C(c4ccc(Cl)cc4)c4c(sc(C)c4C)-n4c(C)nnc43)no2)C(C)C)cc1` [Example 121], the Emax was found to be 98.5% and the DC50 is under 0.01 µM.

With `Cc1ncsc1-c1ccc([C@H](C)NC(=O)[C@@H]2C[C@@H](O)CN2C(=O)[C@@H](NC(=O)/C=C/c2cccc(OCCNC(=O)C[C@@H]3N=C(c4ccc(Cl)cc4)c4c(sc(C)c4C)-n4c(C)nnc43)c2)C(C)(C)C)cc1` [Example 122], the Emax was 100% and the DC50 was under 0.01 µM.

As to `Cc1ncsc1-c1ccc(CNC(=O)[C@@H]2C[C@@H](O)CN2C(=O)[C@@H](NC(=O)CCN2CCC(OCCNC(=O)C[C@@H]3N=C(c4ccc(Cl)cc4)c4c(sc(C)c4C)-n4c(C)nnc43)CC2)C(C)(C)C)cc1` [Example 123], the Emax is 19.7% and the DC50 was over 1 µM.

On to `Cc1ncsc1-c1ccc([C@H](C)NC(=O)[C@@H]2C[C@@H](O)CN2C(=O)[C@@H](NC(=O)COCCOc2cccc(NC(=O)C[C@@H]3N=C(c4ccc(Cl)cc4)c4c(sc(C)c4C)-n4c(C)nnc43)c2)C(C)(C)C)cc1` [Example 124], for which the Emax worked out at 98% and the DC50 was under 0.01 µM.

Turning to `Cc1ncsc1-c1ccc(CNC(=O)[C@@H]2C[C@@H](O)CN2C(=O)[C@@H](NC(=O)COCCCCCOc2cccc(NC(=O)C[C@@H]3N=C(c4ccc(Cl)cc4)c4c(sc(C)c4C)-n4c(C)nnc43)c2)C(C)(C)C)cc1` [Example 125], the Emax turned out to be 99.5% and the DC50 is under 0.01 µM.

As for `Cc1ncsc1-c1ccc(CNC(=O)[C@@H]2C[C@@H](O)CN2C(=O)[C@@H](NC(=O)COCCCCOc2cccc(NC(=O)C[C@@H]3N=C(c4ccc(Cl)cc4)c4c(sc(C)c4C)-n4c(C)nnc43)c2)C(C)(C)C)cc1` [Example 126], the Emax came out at 99% and the DC50 is under 0.01 µM.

For `Cc1ncsc1-c1ccc([C@H](C)NC(=O)[C@@H]2C[C@@H](O)CN2C(=O)[C@@H](NC(=O)COc2cccc(OCCNC(=O)C[C@@H]3N=C(c4ccc(Cl)cc4)c4c(sc(C)c4C)-n4c(C)nnc43)c2)C(C)(C)C)cc1` [Example 127, (2S,4R)-1-[(2S)-2-{2-[3-(2-{2-[(9S)-7-(4-chlorophenyl)-4,5,13-trimethyl-3-thia-1,8,11,12-tetraazatricyclo[8.3.0.0^2,^6]trideca-2(6),4,7,10,12-pentaen-9-yl]acetamido}ethoxy)phenoxy]acetamido}-3,3-dimethylbutanoyl]-4-hydroxy-N-[(1S)-1-[4-(4-methyl-1,3-thiazol-5-yl)phenyl]ethyl]pyrrolidine-2-carboxamide], the Emax came to 99% and the DC50 is under 0.01 µM.

Consider `Cc1ncsc1-c1ccc([C@H](C)NC(=O)[C@@H]2C[C@@H](O)CN2C(=O)[C@@H](NC(=O)COc2ccc(OCCNC(=O)C[C@@H]3N=C(c4ccc(Cl)cc4)c4c(sc(C)c4C)-n4c(C)nnc43)nc2)C(C)(C)C)cc1` [Example 128, (2S,4R)-1-[(2S)-2-(2-{[6-(2-{2-[(9S)-7-(4-chlorophenyl)-4,5,13-trimethyl-3-thia-1,8,11,12-tetraazatricyclo[8.3.0.0^2,^6]trideca-2(6),4,7,10,12-pentaen-9-yl]acetamido}ethoxy)pyridin-3-yl]oxy}acetamido)-3,3-dimethylbutanoyl]-4-hydroxy-N-[(1S)-1-[4-(4-methyl-1,3-thiazol-5-yl)phenyl]ethyl]pyrrolidine-2-carboxamide], for which the Emax is 100% and the DC50 is under 0.01 µM.

Regarding `Cc1ncsc1-c1ccc([C@H](C)NC(=O)[C@@H]2C[C@@H](O)CN2C(=O)[C@@H](NC(=O)COCCCOCCOc2cccc(NC(=O)C[C@@H]3N=C(c4ccc(Cl)cc4)c4c(sc(C)c4C)-n4c(C)nnc43)c2)C(C)(C)C)cc1` [Example 129], the Emax was 96% and the DC50 was under 0.01 µM.

As for `Cc1ncsc1-c1ccc(CNC(=O)[C@@H]2C[C@@H](O)CN2C(=O)[C@@H](NC(=O)COCCCOCCOc2cc(NC(=O)C[C@@H]3N=C(c4ccc(Cl)cc4)c4c(sc(C)c4C)-n4c(C)nnc43)ccc2F)C(C)(C)C)cc1` [Example 130], the Emax is 99% and the DC50 was under 0.01 µM.

Regarding `Cc1ncsc1-c1ccc([C@H](C)NC(=O)[C@@H]2C[C@@H](O)CN2C(=O)[C@@H](NC(=O)c2ccc(OCCCNC(=O)C[C@@H]3N=C(c4ccc(Cl)cc4)c4c(sc(C)c4C)-n4c(C)nnc43)cc2)C(C)(C)C)cc1` [Example 132, (2S,4R)-1-[(2S)-2-{[4-(3-{2-[(9S)-7-(4-chlorophenyl)-4,5,13-trimethyl-3-thia-1,8,11,12-tetraazatricyclo[8.3.0.0^2,^6]trideca-2(6),4,7,10,12-pentaen-9-yl]acetamido}propoxy)phenyl]formamido}-3,3-dimethylbutanoyl]-4-hydroxy-N-[(1S)-1-[4-(4-methyl-1,3-thiazol-5-yl)phenyl]ethyl]pyrrolidine-2-carboxamide], the Emax worked out at 99% and the DC50 was under 0.01 µM.
